Tests used:
[1] = tested on: asthma model mice; experiment: Anti-asthma pharmacodynamic experiment: airway hyperresponsiveness (Penh) after methacholine challenge; type: in vivo, female BALB/c mice; details: compared with the model group
Protocol: (§1) Pharmacological Example 4: Pharmacodynamic Experiment on Anti-Asthma
(§2) The suspensions were stored at room temperature protected from light until use.
(§3) Positive control drug: Budesonide Suspension for Inhalation (specification: 2 mL: 1 mg; AstraZeneca Inc.; Lot No. : 327392) was diluted with injection-grade sodium chloride solution to 0.3 mg/ml as the positive control drug, and stored at room temperature protected from light until use.
(§4) Sixty female BALB/c mice underwent a one-week adaptive feeding period. Ten mice were randomly selected as the blank control group, while 50 mice were selected to establish asthma models.
(§5) From days 21 to 23 after sensitization, the mice in the model group and drug administration group were exposed to a 30-minute aerosol challenge with 5% OVA, while the mice in the blank control group were exposed to normal saline aerosol for the same duration.
Airway responsiveness was measured in all groups of mice after the last challenge. The mice were placed into a plethysmography chamber, and baseline Penh values were recorded. Subsequently, the mice were challenged with aerosolized methacholine at concentrations from low to high of 0, 6.25, and 12.5 mg/mL, with an aerosol volume of 100 µ L each time for 60 s. […] Penh values were then recorded for 3 min and averaged to compare the airway responsiveness of each group of mice.

[2] = tested on: inflammatory cytokines IL-6 and IL-12; experiment: Anti-asthma pharmacodynamic experiment: inflammatory cytokines in bronchoalveolar lavage fluid (ELISA); type: in vivo, female BALB/c mice; details: compared with the model group
Protocol: as §1, §2, §3, §4, §5
At the end of airway hyperresponsiveness testing in mice, the mice were euthanized by cervical dislocation and fixed on a dissection tray. The abdomens and thoracic cavities of the mice were opened, and the skin and excess tissues of the neck were excised to expose the trachea of the mice. A small incision was made transversely on the trachea with a small scissors. A pre-treated 1 mL syringe needle was inserted and fastened with surgical thread. A 1 mL syringe was used to slowly inject 0.5 mL of pre-chilled phosphate-buffered saline (PBS) into the lungs of the mice, followed by slow aspiration. Each mouse was lavaged once, and a total of approximately 0.4 ml of lavage fluid was collected. The bronchoalveolar lavage fluid was centrifuged at 3000 rpm for 5 min. After centrifugation, the supernatant was aliquoted, and the levels of inflammatory cytokines IL-6 and IL-12 in the bronchoalveolar lavage fluid were determined using ELISA kits.

[3] = tested on: inflammatory cytokines (TNF-α); experiment: Anti-uveitis pharmacodynamic experiment (LPS model): inflammatory cytokines in aqueous humor (ELISA); type: in vivo, male SD rats; details: values not given
Protocol: Pharmacological Example 5. Pharmacodynamic Experiment on Anti-Uveitis
Test samples: Compounds 23 and 26 were prepared as 5 mg/5 mL ophthalmic suspensions with reference to the formulation of Fluorometholone Eye Drops, and stored at room temperature protected from light until use.
Positive control drug: Fluorometholone Eye Drops (specification: 5 mL/5 mg; Santen Pharmaceutical (CHINA) Co., Ltd.; Lot No. : J20180068) was used as the positive control drug and stored at room temperature protected from light until use.
Fifty male SD rats underwent a one-week adaptive feeding period. The animals were randomly divided into 5 groups: Group 1 served as the blank control group, and Groups 2 to 5 were the model group, fluorometholone group, compound 23 group, and compound 26 group, respectively. Groups 2 to 5 were used to establish rat uveitis models by single subcutaneous injection of 1 mg/kg LPS (Salmonella; Sigma; Lot No. 0000164114) into the plantar tissue of the hindpaw. Salmonella endotoxin was dissolved in normal saline to prepare an injection solution at a concentration of 2 mg/mL, which was injected subcutaneously at 1 mg/kg into the plantar tissue of one paw of the rats. Group 1 was injected with an equal volume of normal saline.
After modeling, 40 µL of normal saline was administered to the eyes (bilateral) of the rats in the blank control group and model group, and 40 µL of the corresponding drugs were administered to the eyes (bilateral) of the […] in the compound 23 group, compound 26 group, and positive drug fluorometholone group, 3 times a day for 2 days. Table 8. Animal grouping and drug administration dosages
Thirty hours after modeling, aqueous humor was collected from both eyes of rats, and partial eyeball tissues of rats were collected. The level of the inflammatory cytokines (TNF-α) was detected using a rat ELISA assay kit.
Statistical analysis was performed using SPSS software. Measurement data were expressed as mean ± standard deviation. One-way ANOVA was used for intergroup comparisons. For data with homogeneous variance, LSD test was used; for data with heterogeneous variance, Dunnett-t test was used. A value of P < 0.05 was considered statistically significant.

[4] = tested on: dry eye syndrome model New Zealand rabbits; experiment: Dry eye syndrome experiment (benzalkonium chloride model): tear secretion test with phenol red cotton threads; type: in vivo, male New Zealand White rabbits; details: compared with the model group
Protocol: (§6) Positive control drug: Fluorometholone Eye Drops (specification: 5 mL/5 mg; Santen Pharmaceutical (CHINA) Co., Ltd.; Lot No.: 1FM6625) was used as the positive control drug and stored at room temperature protected from light until use.
Thirty male New Zealand White rabbits (conventional grade) were prepared. Six rabbits were randomly selected as the blank control group, and the remaining animals were administered 0.1% benzalkonium chloride to the left eye twice daily (morning and evening) , 10 µL/animal each time. On day 6 of modeling, tear secretion was measured using phenol red cotton threads to determine whether the model was successfully established. […] During the administration, all animals except the blank control group were administered 10 µL of 0.1% benzalkonium chloride to the left eye once daily to maintain dry eye symptoms..
• Test time: D3, D7, D15; • Test animals: All animals were tested before grouping; all enrolled surviving animals were tested after administration; • Test method: Tear secretion was measured using phenol red cotton threads. The tear secretion test paper was folded and placed at the middle and outer 1/3 of the rabbit palpebral conjunctival sac for 1 min. The test paper was then removed, observed, and recorded for its wetting length. The test was repeated 3 times, and the values were averaged.
(§7) The normality and homogeneity of variance were tested by Levene's test. If there was no statistical significance (P > 0.05), one-way analysis of variance (ANOVA) was used for statistical analysis. If ANOVA was statistically significant (P ≤ 0.05), LSD test (parametric method) was used for comparative analysis. If the variance was heterogeneous (P ≤ 0.05), Kruskal-Wallis test was used. If the Kruskal-Wallis test was statistically significant (P ≤ 0.05), Dunnett's test (nonparametric method) was used for comparative analysis.

[5] = tested on: dry eye syndrome model New Zealand rabbits; experiment: Dry eye syndrome experiment (benzalkonium chloride model): corneal fluorescein sodium staining; type: in vivo, male New Zealand White rabbits; details: compared with the model group
Protocol: Pharmacological Example 6: Therapeutic Pharmacodynamic Experiment on Dry Eye Syndrome in New Zealand Rabbits
as §6
Thirty male New Zealand White rabbits (conventional grade) were prepared. Six rabbits were randomly selected as the blank control group, and the remaining animals were administered 0.1% benzalkonium chloride to the left eye twice daily (morning and evening) , 10 µL/animal each time. […] During the administration, all animals except the blank control group were administered 10 µL of 0.1% benzalkonium chloride to the left eye once daily to maintain dry eye symptoms..
• Test time: D3, D7, D15; • Test animals: All animals were tested before grouping; all enrolled surviving animals were tested after administration; • Test method: 2 µL of 1% Fluorescein sodium was dropped into the conjunctival sac. After 5 s, the excess fluorescein was rinsed with 0.9% normal saline. The conjunctival staining was observed under a slit lamp with cobalt blue diffused light.
as §7

[6] = tested on: inflammatory bowel disease model rats; experiment: Inflammatory bowel disease experiment (TNBS model): macroscopic injury score of the colon; type: in vivo; details: compared with the model group
Method in brief: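 Colitis in rats was induced by intrarectal TNBS 50 mg/kg (20 mg/mL in 50% ethanol) after 24 h fasting. Dosing began 1 h before induction, then daily for 5 days. On day 5 colon was scored macroscopically for adhesion, obstruction, wall thickening, congestion and necrosis, with ANOVA/Dunnett or Kruskal-Wallis/Mann-Whitney statistics.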

[7] = Pharmacokinetic (PK) experiment in rats; type: in vivo, male SD rats; details: same experimental conditions
Method in brief: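 Male SD rats dosed by body weight, oral group fasted overnight until 4 h post-dose. Jugular blood sampled 2 min–24 h into heparin; plasma analysed and PK parameters derived from concentration–time data.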

**Q.** With C[C@]12C=CC(=O)C=C1CC[C@H]1[C@@H]3C[C@H]4OC(c5ccc(COC6CCOC6=O)cc5)O[C@@]4(C(=O)CO)[C@@]3(C)C[C@H](O)[C@@]12Cl (stereo partly drawn) [Compound 22, (6aS,6bR,7S,8aS,8bS,11aR,12aS,12bS)-6b-Chloro-7-hydroxy-8b-(2-hydroxyacetyl)-6a,8a-dimethyl-10-(4-(((2-oxotetrahydrofuran-3-yl)oxy)methyl)phenyl)-1,2,6a,6b,7,8,8a,8b,11a,12,12a,12b-do decahydro-4H-naphtho[2',1':4,5]indeno[1,2-d][1,3]dioxol-4-one] as the molecule, how does the “Effects on airway hyperresponsiveness (Penh values) in mice” value (“Effects on airway hyperresponsiveness” below) [1] read?
**A.** significantly decreased the Penh values in mice

**Q.** And the “Effects on inflammatory cytokines in bronchoalveolar lavage fluid of mice” value (from here on “Effects on inflammatory cytokines”) [2]?
**A.** pharmacological effects similar to those of compound 23

**Q.** And the “inflammatory cytokines in aqueous humor” value [3]?
**A.** suppressed inflammatory cytokines in aqueous humor

**Q.** And the tear secretion [4]?
**A.** significantly increased the tear secretion

**Q.** What about the “inflammatory response on the ocular surface / ocular symptoms” value [5] of the same molecule?
**A.** significantly alleviated the ocular symptoms in dry eye syndrome model New Zealand rabbits

**Q.** And the “inflammatory response on the intestinal surface / intestinal symptoms” value [6]?
**A.** significantly alleviated the intestinal symptoms in inflammatory bowel disease model rats

**Q.** And the “pharmacokinetic properties (plasma clearance rate, systemic exposure)” value (“pharmacokinetic properties” for short) [7]?
**A.** pharmacokinetic properties similar to those of compound 8

**Q.** What does the source list for C[C@]12C=CC(=O)C=C1CC[C@H]1[C@@H]3C[C@H]4OC(c5ccc(CSC6CCOC6=O)nc5)O[C@@]4(C(=O)CO)[C@@]3(C)C[C@H](O)[C@@]12Cl (stereo partly drawn) [Compound 48, (6aS,6bR,7S,8aS,8bS,11aR,12aS,12bS)-6b-Chloro-7-hydroxy-8b-(2-hydroxyacetyl)-6a,8a-dimethyl-10-(6-(((2-oxotetrahydrofuran-3-yl)thio)methyl)pyridin-3-yl)-1,2,6a,6b,7,8,8a,8b,11a,12,12a,12 b-dodecahydro-4H-naphtho[2',1':4,5]indeno[1,2-d][1,3]dioxol-4-one]?
**A.** Effects on airway hyperresponsiveness (Penh values) in mice [1]: significantly decreased the Penh values in mice; Effects on inflammatory cytokines in bronchoalveolar lavage fluid of mice [2]: pharmacological effects similar to those of compound 23; inflammatory cytokines in aqueous humor [3]: suppressed inflammatory cytokines in aqueous humor; tear secretion [4]: significantly increased the tear secretion; inflammatory response on the ocular surface / ocular symptoms [5]: significantly alleviated the ocular symptoms in dry eye syndrome model New Zealand rabbits; inflammatory response on the intestinal surface / intestinal symptoms [6]: significantly alleviated the intestinal symptoms in inflammatory bowel disease model rats; pharmacokinetic properties (plasma clearance rate, systemic exposure) [7]: pharmacokinetic properties similar to those of compound 8

**Q.** Which results are given for C[C@]12C=CC(=O)C=C1[C@@H](F)C[C@H]1[C@@H]3C[C@H]4OC(c5ccc(CSC6CCOC6=O)cc5)O[C@@]4(C(=O)OCC#N)[C@@]3(C)C[C@H](O)[C@@]12F (stereo partly drawn) [Compound 37, Cyanomethyl (2S,6aS,6bR,7S,8aS,8bS,11aR,12aS,12bS)-2,6b-difluoro-7-hydroxy-6a,8a-dimethyl-4-oxo-10-(4-( ((2-oxotetrahydrofuran-3-yl)thio)methyl)phenyl)-1,2,4,6a,6b,7,8,8a,11a,12,12a,12b-dodecahydro-8bH-naphtho[2',1':4,5]indeno[1,2-d][1,3]dioxole-8b-carboxylate]?
**A.** Effects on airway hyperresponsiveness (Penh values) in mice [1]: significantly decreased the Penh values in mice; Effects on inflammatory cytokines in bronchoalveolar lavage fluid of mice [2]: pharmacological effects similar to those of compound 23; inflammatory cytokines in aqueous humor [3]: suppressed inflammatory cytokines in aqueous humor; tear secretion [4]: significantly increased the tear secretion; inflammatory response on the ocular surface / ocular symptoms [5]: significantly alleviated the ocular symptoms in dry eye syndrome model New Zealand rabbits; inflammatory response on the intestinal surface / intestinal symptoms [6]: significantly alleviated the intestinal symptoms in inflammatory bowel disease model rats; pharmacokinetic properties (plasma clearance rate, systemic exposure) [7]: pharmacokinetic properties similar to those of compound 8

**Q.** For C[C@]12C=CC(=O)C=C1[C@@H](F)C[C@H]1[C@@H]3C[C@H]4OC(c5ccc(CSC6CCOC6=O)cc5)O[C@@]4(C(=O)OCF)[C@@]3(C)C[C@H](O)[C@@]12F (stereo partly drawn) [Compound 36, Fluoromethyl (2S,6aS,6bR,7S,8aS,8bS,11aR,12aS,12bS)-2,6b-difluoro-7-hydroxy-6a,8a-dimethyl-4-oxo-10-(4-( ((2-oxotetrahydrofuran-3-yl)thio)methyl)phenyl)-1,2,4,6a,6b,7,8,8a,11a,12,12a,12b-dodecahydro-8bH-naphtho[2',1':4,5]indeno[1,2-d][1,3]dioxole-8b-carboxylate], which “Effects on airway hyperresponsiveness” value [1] is on record?
**A.** significantly decreased the Penh values in mice

**Q.** And the “Effects on inflammatory cytokines” value [2]?
**A.** pharmacological effects similar to those of compound 23

**Q.** And the “inflammatory cytokines in aqueous humor” value [3]?
**A.** suppressed inflammatory cytokines in aqueous humor

**Q.** What about the tear secretion [4] of the same molecule?
**A.** significantly increased the tear secretion

**Q.** What about the “inflammatory response on the ocular surface / ocular symptoms” value [5] of the same molecule?
**A.** significantly alleviated the ocular symptoms in dry eye syndrome model New Zealand rabbits

**Q.** What about the “inflammatory response on the intestinal surface / intestinal symptoms” value [6] of the same molecule?
**A.** significantly alleviated the intestinal symptoms in inflammatory bowel disease model rats

**Q.** What about the “pharmacokinetic properties” value [7] of the same molecule?
**A.** pharmacokinetic properties similar to those of compound 8

**Q.** For C[C@]12C=CC(=O)C=C1[C@@H](F)C[C@H]1[C@@H]3C[C@H]4OC(c5ccc(CSC6CCOC6=O)nc5)O[C@@]4(C(=O)CO)[C@@]3(C)C[C@H](O)[C@@]12F (stereo partly drawn) [Compound 46, (25,6aS,6bR,78,8a8,8bS,11aR,12a8,12b8S)-2,6b-Difluoro-7-hydroxy-8b-(2-hydroxyacetyl)-6a,8a-dimethyl-10-(6-(((2-oxotetrahydrofuran-3-yl)thio)methyl)pyridin-3-yl)-1,2,6a,6b,7,8,8a,8b,11a,12, 12a,12b-dodecahydro-4H-naphtho[2',1':4,5]indeno[1,2-d][1,3]dioxol-4-one], which “Effects on airway hyperresponsiveness” value [1] is on record?
**A.** significantly decreased the Penh values in mice

**Q.** What about the “Effects on inflammatory cytokines” value [2] of the same molecule?
**A.** pharmacological effects similar to those of compound 23

**Q.** And the “inflammatory cytokines in aqueous humor” value [3]?
**A.** suppressed inflammatory cytokines in aqueous humor

**Q.** And the tear secretion [4]?
**A.** significantly increased the tear secretion

**Q.** What about the “inflammatory response on the ocular surface / ocular symptoms” value [5] of the same molecule?
**A.** significantly alleviated the ocular symptoms in dry eye syndrome model New Zealand rabbits

**Q.** What about the “inflammatory response on the intestinal surface / intestinal symptoms” value [6] of the same molecule?
**A.** significantly alleviated the intestinal symptoms in inflammatory bowel disease model rats

**Q.** What about the “pharmacokinetic properties” value [7] of the same molecule?
**A.** pharmacokinetic properties similar to those of compound 8

**Q.** With C[C@]12C=CC(=O)C=C1CC[C@H]1[C@@H]3C[C@H]4OC(c5ccc(COC6CCOC6=O)cc5)O[C@@]4(C(=O)CO)[C@@]3(C)C[C@H](O)[C@@]12F (stereo partly drawn) [Compound 16, (6aS,6bR,7S,8aS,8bS,11aR,12aS,12bS)-6b-Fluoro-7-hydroxy-8b-(2-hydroxyacetyl)-6a,8a-dimethyl-10-(4-(((2-oxotetrahydrofuran-3-yl)oxy)methyl)phenyl)-1,2,6a,6b,7,8,8a,8b,11a,12,12a,12b-do decahydro-4H-naphtho[2',1':4,5]indeno[1,2-d][1,3]dioxol-4-one] as the molecule, how does the “Effects on airway hyperresponsiveness” value [1] read?
**A.** significantly decreased the Penh values in mice

**Q.** And the “Effects on inflammatory cytokines” value [2]?
**A.** pharmacological effects similar to those of compound 23

**Q.** What about the “inflammatory cytokines in aqueous humor” value [3] of the same molecule?
**A.** suppressed inflammatory cytokines in aqueous humor

**Q.** What about the tear secretion [4] of the same molecule?
**A.** significantly increased the tear secretion

**Q.** And the “inflammatory response on the ocular surface / ocular symptoms” value [5]?
**A.** significantly alleviated the ocular symptoms in dry eye syndrome model New Zealand rabbits

**Q.** What about the “inflammatory response on the intestinal surface / intestinal symptoms” value [6] of the same molecule?
**A.** significantly alleviated the intestinal symptoms in inflammatory bowel disease model rats

**Q.** And the “pharmacokinetic properties” value [7]?
**A.** pharmacokinetic properties similar to those of compound 8

— patent publication EP4635969A1, “NOVEL GLUCOCORTICOID, METHOD FOR PREPARING SAME, AND USE THEREOF” (Tianjin Pharmaceutical Biotechnology Co., Ltd., priority 2022, dated 2024)
